According to ChEMBL document CHEMBL4828717, “Synthetic cajaninstilbene acid derivatives eradicate methicillin-resistant Staphylococcus aureus persisters and biofilms” (Eur J Med Chem, 2021):
Calls of active or inactive are those of the source. The calls are words filed in the database; no cut-off is given here.

Key:
[1] = Toxicity in BALB/c mouse infected with methicillin-resistant Staphylococcus aureus ATCC 43300 assessed as damage in lung at 50 to 200 mg/kg, sc administered every 24 hrs for 4 days by H&E staining based light microscopic analysis; format: organism-based; settings: in vivo, dose 50-200 mg/kg
[2] = test system: Staphylococcus aureus; assay: Antibacterial activity against methicillin resistant Staphylococcus aureus ATCC 43300 persisters assessed as reduction in colony formation at 8 ug/ml incubated for 2 hrs by colony counting method; format: functional, organism-based; settings: dose 8.0 µg/ml
[3] = test system: Cell membrane; assay: Induction of cell membrane permeabilization in methicillin resistant Staphylococcus aureus ATCC 43300 assessed as fluorescence intensity at 2 times MIC measured after 30 mins by propidium iodide staining based fluorescence assay
[4] = test system: Staphylococcus aureus; assay: Antibacterial activity against methicillin resistant Staphylococcus aureus ATCC515992 assessed as reduction in microbial growth after 16 to 18 hrs by microbroth dilution method; format: functional; settings: time 16-18 hrs
[5] = test system: Cell membrane; assay: Induction of cell membrane damage in methicillin resistant Staphylococcus aureus ATCC 43300 assessed as increase in ATP leakage […] at 1 times MIC measured every 30 mins for 6 hrs by Bactiter-glo assay
[6] = test system: L02; assay: Cytotoxicity against human L02 cells assessed as cell viability at 10 ug/ml measured after 24 hrs by MTT assay; format: cell-based; settings: l02, 24 h, dose 10 µg/ml
[7] = test system: Staphylococcus aureus; assay: Antibacterial activity against methicillin resistant Staphylococcus aureus ATCC 43300 persisters assessed as reduction in number of bacteria at 4 times MIC incubated for 4 hrs by colony counting method; format: functional, organism-based
[8] = test system: Cell membrane; assay: Induction of cell membrane depolarization in methicillin resistant Staphylococcus aureus ATCC 43300 measured up to 60 mins by DiOC5 dye based flow analyzer; settings: time min <=60, TDE = time-dependent effect
[9] = test system: Enterococcus faecalis; assay: Antibacterial activity against Enterococcus faecalis ATCC29212 assessed as reduction in microbial growth after 16 to 18 hrs by microbroth dilution method; format: functional; settings: ATCC 29212, time 16-18 hrs
[10] = test system: Staphylococcus aureus; assay: Antibacterial activity against methicillin resistant Staphylococcus aureus ATCC48966 assessed as reduction in microbial growth after 16 to 18 hrs by microbroth dilution method; format: functional; settings: time 16-18 hrs
[11] = Cytotoxicity against mouse RAW264.7 cells assessed as cell viability at 10 ug/ml measured after 24 hrs by MTT assay; format: cell-based; settings: RAW264.7 cells, at 10 µg/mL, read-out: Activity
[12] = test system: Staphylococcus aureus; assay: Synergistic antimicrobial activity against Staphylococcus aureus ATCC 43300 assessed as FICI at 1 times MIC after 24 hrs in presence of 128 ug/ml kanamycin by checkerboard assay; format: functional
[13] = test system: Staphylococcus aureus; assay: Synergistic antimicrobial activity against Staphylococcus aureus ATCC 43300 assessed as FICI at 1 times MIC after 24 hrs in presence of 8 ug/ml gentamicin by checkerboard assay; format: functional
[14] = test system: Staphylococcus aureus; assay: Antibacterial activity against methicillin resistant Staphylococcus aureus ATCC48073 assessed as reduction in microbial growth after 16 to 18 hrs by microbroth dilution method; format: functional; settings: time 16-18 hrs
[15] = test system: Staphylococcus aureus; assay: Antibacterial activity against methicillin resistant Staphylococcus aureus ATCC48706 assessed as reduction in microbial growth after 16 to 18 hrs by microbroth dilution method; format: functional; settings: time 16-18 hrs
[16] = test system: Staphylococcus aureus; assay: Antimicrobial activity against methicillin-resistant Staphylococcus aureus ATCC 43300 infected in abscesses mouse model assessed as increase in mouse survival at 50 to 200 mg/kg, sc administered every 24 hrs for 4 days; format: functional, organism-based; settings: dose 50-200 mg/kg
[17] = test system: Cell membrane; assay: Induction of cell membrane damage in methicillin resistant Staphylococcus aureus ATCC 43300 assessed as increase in nucleic acid leakage by measuring increase in absorbance at 260 nm at 0.5 to 2 times MIC measured every 30 mins for 6 hrs by spectrophotometry; format: subcellular
[18] = test system: Cell membrane; assay: Induction of cell membrane damage in Staphylococcus aureus ATCC 43300 at 1 times MIC after 90 mins by confocal laser scanning microscopy analysis
[19] = Toxicity in BALB/c mouse infected with methicillin-resistant Staphylococcus aureus ATCC 43300 assessed as damage in spleen at 50 to 200 mg/kg, sc administered every 24 hrs for 4 days by H&E staining based light microscopic analysis; format: organism-based; settings: in vivo, dose 50-200 mg/kg
[20] = test system: Pseudomonas aeruginosa; assay: Antibacterial activity against Pseudomonas aeruginosa ATCC27853 assessed as reduction in microbial growth after 16 to 18 hrs by microbroth dilution method; format: functional; settings: time 16-18 hrs
[21] = Toxicity in BALB/c mouse infected with methicillin-resistant Staphylococcus aureus ATCC 43300 assessed as damage in heart at 50 to 200 mg/kg, sc administered every 24 hrs for 4 days by H&E staining based light microscopic analysis; format: organism-based; settings: in vivo, dose 50-200 mg/kg
[22] = test system: Cell membrane; assay: Induction of cell membrane damage in Staphylococcus aureus ATCC 43300 at 2 times MIC after 90 mins by confocal laser scanning microscopy analysis
[23] = test system: Cell membrane; assay: Induction of cell membrane depolarization in methicillin resistant Staphylococcus aureus ATCC 43300 measured after 60 mins by DiOC5 dye based flow analyzer
[24] = test system: Staphylococcus aureus; assay: Induction of morphological changes in Staphylococcus aureus ATCC 43300 assessed as membrane damage at 8 times MIC after 90 mins by TEM analysis; format: functional, organism-based
[25] = test system: Cell membrane; assay: Induction of cell membrane damage in methicillin resistant Staphylococcus aureus ATCC 43300 assessed as increase in ATP leakage […] at 0.5 times MIC measured every 30 mins for 6 hrs by Bactiter-glo assay; format: subcellular
[26] = test system: Staphylococcus aureus; assay: Antibacterial activity against methicillin resistant Staphylococcus aureus ATCC 43300 persisters assessed as reduction in colony formation at 8 ug/ml incubated for 8 hrs by colony counting method; format: functional, organism-based; settings: dose 8.0 µg/ml
[27] = test system: Staphylococcus aureus; assay: Synergistic antimicrobial activity against Staphylococcus aureus ATCC 43300 assessed as FICI at 0.5 times MIC after 24 hrs in presence of 16 ug/ml gentamicin by checkerboard assay; format: functional
[28] = test system: Staphylococcus aureus; assay: Synergistic antimicrobial activity against Staphylococcus aureus ATCC 43300 assessed as FICI at 0.5 times MIC after 24 hrs in presence of 64 ug/ml piperacillin by checkerboard assay; format: functional
[29] = test system: Staphylococcus aureus; assay: Synergistic antimicrobial activity against Staphylococcus aureus ATCC 43300 assessed as FICI at 2 times MIC after 24 hrs in presence of 64 ug/ml kanamycin by checkerboard assay; format: functional
[30] = test system: Staphylococcus aureus; assay: Synergistic antimicrobial activity against Staphylococcus aureus ATCC 43300 assessed as FICI at 0.5 times MIC after 24 hrs in presence of 128 ug/ml kanamycin by checkerboard assay; format: functional
[31] = test system: Staphylococcus aureus; assay: Antibacterial activity against methicillin resistant Staphylococcus aureus ATCC49800 assessed as reduction in microbial growth after 16 to 18 hrs by microbroth dilution method; format: functional; settings: time 16-18 hrs
[32] = test system: Staphylococcus aureus; assay: Antibacterial activity against methicillin resistant Staphylococcus aureus ATCC 43300 assessed as reduction in microbial growth after 16 to 18 hrs by microbroth dilution method; format: functional; settings: time 16-18 hrs
[33] = test system: Escherichia coli; assay: Antibacterial activity against Escherichia coli ATCC25922 assessed as reduction in microbial growth after 16 to 18 hrs by microbroth dilution method; format: functional; settings: ATCC 25922, time 16-18 hrs
[34] = test system: Staphylococcus aureus; assay: Synergistic antimicrobial activity against Staphylococcus aureus ATCC 43300 assessed as FICI at 2 times MIC after 24 hrs in presence of 4 ug/ml gentamicin by checkerboard assay; format: functional

SMILES: CC(C)=CCc1c(OCCF)cc(/C=C/c2ccc(F)cc2)c(C(=O)O)c1O
- Activity [1]: Non-Toxic
- Activity [2]: Active
- Activity [3]: Active
- MIC [4]: 4 µg/mL
- Activity [5]: Active
- Activity [6]: Toxic
- Activity [7]: Active
- Activity [8]: Tde
- MIC [9]: > 32 µg/mL
- MIC [10]: 4 µg/mL
- viability at 24 h, 10 ug/ml [11]: > 60%
- fractional inhibitory concentration index (FICI) [12]: 0.75
- fractional inhibitory concentration index (FICI) [13]: 0.75
- MIC [14]: 4 µg/mL
- MIC [15]: 4 µg/mL
- Activity [16]: Active
- Activity [17]: Active
- Activity [18]: Active
- Activity [19]: Non-Toxic
- MIC [20]: > 32 µg/mL
- Activity [21]: Non-Toxic
- Activity [22]: Active
- Activity [23]: Dose-Dependent Effect
- Activity [24]: Active
- Activity [25]: Active
- Activity [26]: Active
- fractional inhibitory concentration index (FICI) [27]: 1.125
- fractional inhibitory concentration index (FICI) [28]: 0.25
- fractional inhibitory concentration index (FICI) [29]: 1
- fractional inhibitory concentration index (FICI) [30]: 1.125
- MIC [31]: 4 µg/mL
- MIC [32]: 4 µg/mL
- MIC [33]: > 32 µg/mL
- fractional inhibitory concentration index (FICI) [34]: 0.75
